According to PubChem BioAssay (NCI):
Values joined by “and” are separate entries in the source; they are usually repeats but may differ in a detail not shown here. Identical values can stand only once.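 Cells were grown in 96-well plates and exposed to each compound for 48 hours at five concentrations; endpoints were interpolated linearly between bracketing concentrations, or set to the highest concentration if not reached. GI50: concentration for 50% inhibition of growth. TGI: concentration producing complete growth inhibition.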

Tests used:
Assay in all cases: growth of human tumour cells (NCI), 48 h
RXF-631 renal = test system: RXF-631 renal
HS 578T breast = test system: HS 578T breast
SF-539 CNS = test system: SF-539 CNS
SK-MEL-2 melanoma = test system: SK-MEL-2 melanoma
NCI-H226 lung = test system: NCI-H226 lung
OVCAR-3 ovarian = test system: OVCAR-3 ovarian
HL-60(TB) leukemia = test system: HL-60(TB) leukemia
NCI-H522 lung = test system: NCI-H522 lung
HCT-116 colon = test system: HCT-116 colon
NCI-H23 lung = test system: NCI-H23 lung
K-562 leukemia = test system: K-562 leukemia
LXFL 529 NSCLC = test system: LXFL 529 NSCLC
MALME-3M melanoma = test system: MALME-3M melanoma
OVCAR-8 ovarian = test system: OVCAR-8 ovarian
M14 melanoma = test system: M14 melanoma
PC-3 prostate = test system: PC-3 prostate
A498 renal = test system: A498 renal
SNB-78 CNS = test system: SNB-78 CNS

For C1CN1c1nc(N2CC2)nc(N2CC2)n1, the TGI (RXF-631 renal) was 42.3 µM, the GI50 (HS 578T breast) was 23.4 µM and the TGI (HS 578T breast) was 87.5 µM and 52.8 µM. The GI50 (SF-539 CNS) was 1.78 µM, the TGI (SF-539 CNS) was 12.8 µM and 8.65 µM and the GI50 (SK-MEL-2 melanoma) was 19.8 µM. The TGI (SK-MEL-2 melanoma) was 36.4 µM and 31.3 µM, the GI50 (NCI-H226 lung) was 10.8 µM and the TGI (NCI-H226 lung) was 27.3 µM and 25.7 µM. For the same molecule, the TGI (OVCAR-3 ovarian) was 41.7 µM and 25.8 µM, the GI50 (HL-60(TB) leukemia) was 0.195 µM and the TGI (HL-60(TB) leukemia) was 24.5 µM and > 100 µM. For the same molecule, the TGI (NCI-H522 lung) was 21 µM and 12.2 µM, the TGI (HCT-116 colon) was 33.4 µM and 15.6 µM and the GI50 (NCI-H23 lung) was 5.55 µM. The TGI (NCI-H23 lung) was 20 µM and 15 µM, the TGI (K-562 leukemia) was 77.9 µM and the TGI (LXFL 529 NSCLC) was 29.7 µM. The GI50 (MALME-3M melanoma) was 13.6 µM, the TGI (MALME-3M melanoma) was 28.2 µM and 22.5 µM and the GI50 (OVCAR-8 ovarian) was 5.11 µM. The TGI (OVCAR-8 ovarian) was 38.8 µM and 16.2 µM, the GI50 (M14 melanoma) was 3.86 µM and the TGI (M14 melanoma) was 23.9 µM and 34.9 µM. The GI50 (PC-3 prostate) was 20.2 µM, the TGI (PC-3 prostate) was 69.3 µM and > 71.2 µM and the TGI (A498 renal) was 25.2 µM.

In the case of C[C@@]1(CO)[C@H](O)CC[C@@]2(C)[C@H]1CC[C@H]1C[C@@H]3C[C@@]12CC[C@@]3(O)COC(=O)CN, the GI50 (HS 578T breast) is reported as 110 µM, the TGI (HS 578T breast) is reported as > 97.2 µM and 214 µM and the GI50 (SK-MEL-2 melanoma) is reported as > 500 µM. The TGI (SK-MEL-2 melanoma) was > 89.6 µM and > 500 µM and 177 µM, the TGI (NCI-H226 lung) was > 500 µM and 238 µM and the GI50 (OVCAR-3 ovarian) was > 500 µM and 105 µM. The TGI (OVCAR-3 ovarian) was > 500 µM and 230 µM, the GI50 (HL-60(TB) leukemia) was 2.11 µM and 0.38 µM and the GI50 (NCI-H522 lung) was 14.6 µM and 106 µM and 33.1 µM. The TGI (NCI-H522 lung) was > 82.2 µM and > 500 µM and 172 µM, the GI50 (HCT-116 colon) was 2.03 µM and 19.5 µM and 4.63 µM and the TGI (HCT-116 colon) was 65.7 µM and > 500 µM and 155 µM. For the same molecule, the GI50 (K-562 leukemia) was 12.9 µM, the TGI (K-562 leukemia) was 68.4 µM and > 5 µM and 231 µM and the TGI (MALME-3M melanoma) was > 500 µM and 189 µM. The GI50 (OVCAR-8 ovarian) was 2.29 µM and 12.6 µM and 4.01 µM, the GI50 (M14 melanoma) was 3.99 µM and the TGI (M14 melanoma) was > 79.1 µM and 112 µM. The GI50 (PC-3 prostate) was 3.29 µM, the TGI (PC-3 prostate) was 150 µM and the GI50 (A498 renal) was 7.15 µM and 50.9 µM and 8.34 µM. The GI50 (SNB-78 CNS) was > 500 µM and the TGI (SNB-78 CNS) was > 500 µM.
